From PubChem BioAssay (NCI)
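Where inhibition never reached the appropriate level, the endpoint shown equals the highest concentration tested. Otherwise, values were interpolated linearly from a five-concentration, 48-hour dose response in 96-well plates. At the GI50, growth is halved. TGI is the concentration that stops growth completely.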

How the values were obtained:
Test in all cases: NCI anticancer screen, dose series, 48 h
UACC-62 melanoma = tested on: UACC-62 melanoma
HOP-62 NSCLC = tested on: HOP-62 NSCLC
MALME-3M melanoma = tested on: MALME-3M melanoma
SW-620 colon = tested on: SW-620 colon
U251 CNS = tested on: U251 CNS
OVCAR-5 ovarian = tested on: OVCAR-5 ovarian
HL-60(TB) leukemia = tested on: HL-60(TB) leukemia
T-47D breast = tested on: T-47D breast
SK-MEL-2 melanoma = tested on: SK-MEL-2 melanoma
SK-MEL-28 melanoma = tested on: SK-MEL-28 melanoma
KM12 colon = tested on: KM12 colon
EKVX NSCLC = tested on: EKVX NSCLC
OVCAR-8 ovarian = tested on: OVCAR-8 ovarian
HT29 colon = tested on: HT29 colon
LOX IMVI melanoma = tested on: LOX IMVI melanoma
SN12C renal = tested on: SN12C renal
786-0 renal = tested on: 786-0 renal
HOP-92 NSCLC = tested on: HOP-92 NSCLC
MCF7 breast = tested on: MCF7 breast
HCT-116 colon = tested on: HCT-116 colon
SNB-19 CNS = tested on: SNB-19 CNS
CAKI-1 renal = tested on: CAKI-1 renal
COLO 205 colon = tested on: COLO 205 colon
DU-145 prostate = tested on: DU-145 prostate
MDA-MB-435 = tested on: MDA-MB-435
OVCAR-3 ovarian = tested on: OVCAR-3 ovarian
BT-549 breast = tested on: BT-549 breast
PC-3 prostate = tested on: PC-3 prostate
NCI-H23 lung = tested on: NCI-H23 lung
OVCAR-4 ovarian = tested on: OVCAR-4 ovarian
HS 578T breast = tested on: HS 578T breast
SF-268 CNS = tested on: SF-268 CNS
UACC-257 melanoma = tested on: UACC-257 melanoma
NCI-H226 lung = tested on: NCI-H226 lung
SK-OV-3 ovarian = tested on: SK-OV-3 ovarian
MDA-MB-231 breast = tested on: MDA-MB-231 breast
IGROV1 ovarian = tested on: IGROV1 ovarian
M14 melanoma = tested on: M14 melanoma
NCI-H460 lung = tested on: NCI-H460 lung
NCI/ADR-RES ovarian = tested on: NCI/ADR-RES ovarian
SF-539 CNS = tested on: SF-539 CNS
HCT-15 colon = tested on: HCT-15 colon
RXF 393 renal = tested on: RXF 393 renal
HCC-2998 colon = tested on: HCC-2998 colon
UO-31 renal = tested on: UO-31 renal
TK-10 renal = tested on: TK-10 renal
SNB-75 CNS = tested on: SNB-75 CNS
RPMI-8226 leukemia = tested on: RPMI-8226 leukemia
A498 renal = tested on: A498 renal
A549 NSCLC = tested on: A549 NSCLC
ACHN renal = tested on: ACHN renal
SK-MEL-5 melanoma = tested on: SK-MEL-5 melanoma

C=C[C@H]1C[C@@H]2C[C@@H]3[C@H]4C/C=C\C(=O)NCCCC5NC(=O)C(=C(O)/C=C/[C@@H]4CC(=O)[C@H]3[C@@H]2[C@H]1C)C5=O (some centres undefined)
GI50 (UACC-62 melanoma): 1450 nM | TGI (UACC-62 melanoma): 2880 nM | GI50 (HOP-62 NSCLC): 165 nM | TGI (HOP-62 NSCLC): 310 nM | GI50 (MALME-3M melanoma): 225 nM | TGI (MALME-3M melanoma): 560 nM | GI50 (SW-620 colon): 1660 nM | TGI (SW-620 colon): 3130 nM | GI50 (U251 CNS): 1610 nM | TGI (U251 CNS): 3070 nM | GI50 (OVCAR-5 ovarian): 436 nM | TGI (OVCAR-5 ovarian): 1720 nM | GI50 (HL-60(TB) leukemia): 1680 nM | TGI (HL-60(TB) leukemia): 3420 nM | GI50 (T-47D breast): 1650 nM | TGI (T-47D breast): 3520 nM | GI50 (SK-MEL-2 melanoma): 1080 nM | TGI (SK-MEL-2 melanoma): 2580 nM | GI50 (SK-MEL-28 melanoma): 203 nM | TGI (SK-MEL-28 melanoma): 399 nM | GI50 (KM12 colon): 1740 nM | TGI (KM12 colon): 3330 nM | GI50 (EKVX NSCLC): 1130 nM | TGI (EKVX NSCLC): 2540 nM | GI50 (OVCAR-8 ovarian): 193 nM | TGI (OVCAR-8 ovarian): 380 nM | GI50 (HT29 colon): 1880 nM | TGI (HT29 colon): 3580 nM | GI50 (LOX IMVI melanoma): 187 nM | TGI (LOX IMVI melanoma): 368 nM | GI50 (SN12C renal): 182 nM | TGI (SN12C renal): 342 nM | GI50 (786-0 renal): 173 nM | TGI (786-0 renal): 329 nM | GI50 (HOP-92 NSCLC): 218 nM | TGI (HOP-92 NSCLC): 539 nM | GI50 (MCF7 breast): 1240 nM | TGI (MCF7 breast): 2800 nM | GI50 (HCT-116 colon): 287 nM | TGI (HCT-116 colon): 1100 nM | GI50 (SNB-19 CNS): 286 nM | TGI (SNB-19 CNS): 1000 nM | GI50 (CAKI-1 renal): 191 nM | TGI (CAKI-1 renal): 374 nM | GI50 (COLO 205 colon): 1780 nM | TGI (COLO 205 colon): 3210 nM | GI50 (DU-145 prostate): 191 nM | TGI (DU-145 prostate): 345 nM | GI50 (MDA-MB-435): 203 nM | TGI (MDA-MB-435): 408 nM | GI50 (OVCAR-3 ovarian): 183 nM | TGI (OVCAR-3 ovarian): 334 nM | GI50 (BT-549 breast): 158 nM | TGI (BT-549 breast): 322 nM | GI50 (PC-3 prostate): 1360 nM | TGI (PC-3 prostate): 2760 nM | GI50 (NCI-H23 lung): 627 nM | TGI (NCI-H23 lung): 1470 nM | GI50 (OVCAR-4 ovarian): 210 nM | TGI (OVCAR-4 ovarian): 413 nM | GI50 (HS 578T breast): 191 nM | TGI (HS 578T breast): 423 nM | GI50 (SF-268 CNS): 172 nM | TGI (SF-268 CNS): 334 nM | GI50 (UACC-257 melanoma): 191 nM | TGI (UACC-257 melanoma): 369 nM | GI50 (NCI-H226 lung): 166 nM | TGI (NCI-H226 lung): 379 nM | GI50 (SK-OV-3 ovarian): 242 nM | TGI (SK-OV-3 ovarian): 606 nM | GI50 (MDA-MB-231 breast): 232 nM | TGI (MDA-MB-231 breast): 537 nM | GI50 (IGROV1 ovarian): 212 nM | TGI (IGROV1 ovarian): 434 nM | GI50 (M14 melanoma): 253 nM | TGI (M14 melanoma): 822 nM | GI50 (NCI-H460 lung): 348 nM | TGI (NCI-H460 lung): 1200 nM | GI50 (NCI/ADR-RES ovarian): 192 nM | TGI (NCI/ADR-RES ovarian): 365 nM | GI50 (SF-539 CNS): 248 nM | TGI (SF-539 CNS): 666 nM | GI50 (HCT-15 colon): 294 nM | TGI (HCT-15 colon): 949 nM | GI50 (RXF 393 renal): 165 nM | TGI (RXF 393 renal): 308 nM | GI50 (HCC-2998 colon): 1410 nM | TGI (HCC-2998 colon): 2780 nM | GI50 (UO-31 renal): 150 nM | TGI (UO-31 renal): 299 nM | GI50 (TK-10 renal): 192 nM | TGI (TK-10 renal): 419 nM | GI50 (SNB-75 CNS): 150 nM | TGI (SNB-75 CNS): 289 nM | GI50 (RPMI-8226 leukemia): 1500 nM | TGI (RPMI-8226 leukemia): 3680 nM | GI50 (A498 renal): 175 nM | TGI (A498 renal): 369 nM | GI50 (A549 NSCLC): 620 nM | TGI (A549 NSCLC): 1910 nM | GI50 (ACHN renal): 180 nM | TGI (ACHN renal): 343 nM | GI50 (SK-MEL-5 melanoma): 161 nM | TGI (SK-MEL-5 melanoma): 309 nM
